This note sets out measurements from patent EP4663635A1, “CRYSTALLINE FORM OF SULFONAMIDE DERIVATIVE AND PREPARATION METHOD THEREFOR” (Jiangsu Hengrui Pharmaceuticals Co., Ltd., priority 2023, dated 2024).

Usually pIC50 stands for the negative decadic logarithm of the IC50, by convention in mol/L. A low value points to a high IC50.

pIC50: −log10 of the molar value.

Data set [1] has as its system ZR-75-1. Description: Anti-ZR-75-1 proliferation assay (CellTiter-Glo). The data set is classed as cell-based. The settings on record: CTG assay on day 14. From the text: • 1. ZR-75-1 (ATCC CRL1500) • 2. 1640 medium (Gibco, 22400-089) • 3. 0.25% trypsin-EDTA (1×) (Gibco, 25200-072) • 4. Penicillin-streptomycin (Gibco, 15140-122) • 5. DPBS (1×) (Gibco, 14190-144) • 6. FBS (Gibco, 10091148) • 7. Assay plate, 96-well, black with clear bottom (Corning, 3603) • 8. 96-well non-treated round-bottom plate (JET BIOFIL, TCP-002-096) • 9. CellTiter-Glo buffer (Promega, G756B) • 10. CellTiter-Glo substrate (Promega, G755B) • 11. Automatic cell counter (Countstar, IC1000) • 12. Thermostatic incubator (Thermo, I160) • 13. PHERAstar FS (BMG labtech, PHERAstar FS)
• a. The state of cells was observed under a microscope to make sure that the cell confluence was about 90%. • b. The cell supernatant was discarded. The cells were rinsed with DPBS once, and the DPBS was removed. The cells were digested with a proper amount of trypsin and left to stand at 37 °C for 5 min. • c. The digestion was stopped with an equal volume of 1640 medium containing 10% FBS, and the cell suspension was collected and centrifuged at 300 g for 3 min. The cells were suspended in a proper amount of fresh medium. • d. The resulting cell suspension was collected and cell counting was performed. • e. The cell suspension was diluted to 5 × 10^4 cells/mL, 50 µL/well with 1640 medium containing 10% FBS. Each well contained 2500 ZR-75-1 cells. • f. […]

Data set [2] deals with T1, KAT6A (Homo sapiens, UniProt Q92794).
T1 construct: purchased Chempartner (customized)
T1 sequence (Q92794 whole entry, species assumed): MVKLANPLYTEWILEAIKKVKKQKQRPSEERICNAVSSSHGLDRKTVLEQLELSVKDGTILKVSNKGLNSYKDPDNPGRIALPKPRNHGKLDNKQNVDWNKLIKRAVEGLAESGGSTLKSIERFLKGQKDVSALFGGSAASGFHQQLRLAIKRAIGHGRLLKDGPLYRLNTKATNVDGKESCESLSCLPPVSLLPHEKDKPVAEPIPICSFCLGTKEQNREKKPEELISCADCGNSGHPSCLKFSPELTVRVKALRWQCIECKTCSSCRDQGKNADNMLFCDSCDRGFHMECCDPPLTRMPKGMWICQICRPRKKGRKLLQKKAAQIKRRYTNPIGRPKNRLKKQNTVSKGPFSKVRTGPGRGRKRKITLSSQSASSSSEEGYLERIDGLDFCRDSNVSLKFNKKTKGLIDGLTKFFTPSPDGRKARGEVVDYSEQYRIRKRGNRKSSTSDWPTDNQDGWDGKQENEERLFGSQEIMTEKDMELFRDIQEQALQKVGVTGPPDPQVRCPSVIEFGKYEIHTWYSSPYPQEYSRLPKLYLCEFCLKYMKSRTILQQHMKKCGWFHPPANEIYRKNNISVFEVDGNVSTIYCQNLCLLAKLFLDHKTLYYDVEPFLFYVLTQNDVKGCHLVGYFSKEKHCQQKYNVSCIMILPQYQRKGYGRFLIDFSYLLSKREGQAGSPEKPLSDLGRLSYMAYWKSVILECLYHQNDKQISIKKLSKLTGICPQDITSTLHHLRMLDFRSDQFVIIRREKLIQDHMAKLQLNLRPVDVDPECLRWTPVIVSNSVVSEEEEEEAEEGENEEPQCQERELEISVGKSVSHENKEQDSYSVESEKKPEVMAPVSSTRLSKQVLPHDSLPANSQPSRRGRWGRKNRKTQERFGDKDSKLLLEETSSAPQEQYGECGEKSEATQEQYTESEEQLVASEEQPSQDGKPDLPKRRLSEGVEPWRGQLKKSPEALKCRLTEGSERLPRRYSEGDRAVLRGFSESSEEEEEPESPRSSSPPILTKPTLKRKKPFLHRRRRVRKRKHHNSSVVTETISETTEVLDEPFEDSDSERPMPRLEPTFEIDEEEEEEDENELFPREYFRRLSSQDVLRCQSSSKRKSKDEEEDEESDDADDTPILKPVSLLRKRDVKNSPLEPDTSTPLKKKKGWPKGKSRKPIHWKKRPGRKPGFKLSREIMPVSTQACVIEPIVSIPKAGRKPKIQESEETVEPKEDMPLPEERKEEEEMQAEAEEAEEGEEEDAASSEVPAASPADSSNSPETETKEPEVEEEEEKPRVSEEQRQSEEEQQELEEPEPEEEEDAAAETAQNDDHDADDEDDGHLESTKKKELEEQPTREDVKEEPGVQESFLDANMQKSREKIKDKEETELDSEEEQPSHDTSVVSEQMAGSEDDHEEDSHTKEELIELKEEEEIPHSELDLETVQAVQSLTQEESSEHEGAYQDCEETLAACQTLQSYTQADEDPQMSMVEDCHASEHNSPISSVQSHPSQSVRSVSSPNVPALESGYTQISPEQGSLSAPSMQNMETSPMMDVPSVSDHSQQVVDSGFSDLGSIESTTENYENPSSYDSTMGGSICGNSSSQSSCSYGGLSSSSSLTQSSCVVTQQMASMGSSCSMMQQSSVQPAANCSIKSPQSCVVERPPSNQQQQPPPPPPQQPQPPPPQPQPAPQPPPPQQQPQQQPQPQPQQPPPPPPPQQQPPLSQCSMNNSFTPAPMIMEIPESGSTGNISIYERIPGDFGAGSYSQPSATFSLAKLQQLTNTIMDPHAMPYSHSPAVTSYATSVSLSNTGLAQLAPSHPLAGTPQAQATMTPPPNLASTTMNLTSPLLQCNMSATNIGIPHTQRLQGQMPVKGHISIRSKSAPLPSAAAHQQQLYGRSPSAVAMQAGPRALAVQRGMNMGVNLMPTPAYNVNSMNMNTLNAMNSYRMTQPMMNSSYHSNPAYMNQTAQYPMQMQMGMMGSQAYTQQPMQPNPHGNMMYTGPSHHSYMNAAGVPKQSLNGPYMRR
Description: Enzymatic activity assay KAT6 (AlphaScreen method). Format: biochemical. To be noted: KAT enzyme 1.25 nM, Ac-CoA 1000 nM, H3 55 nM. The source says: • 1. KAT6A (customized by Chempartner) • 2. Ovalbumin (Sigma-Aldrich, A5378-5G) • 3. 2 M Tris-HCl solution, pH 7.8, sterile (Sangon, B548140-0500) • 4. 5 M NaCl solution (Sangon, B548121-0100) • 5. EDTA (0.5 M), pH 8.0, RNase-free (Thermofisher, AM9260G) • 6. Tween-20 (Sangon, A100777-0500) • 7. DTT, 1 M (Invitrogen, P2325) • 8. Acetyl coenzyme A (Ac-CoA, CAYMAN, Cat. No. 16160) • 9. Recombinant histone H3.1 biotinylated (human) (Active Motif 31696) • 10. 384-well plate, light gray (PerkinElmer, Cat. No. 6005350) • 11. Anacardic acid (MCE, Cat. No. HY-N2020) • 12. AlphaScreen streptavidin donor beads, 5 mg (PerkinElmer, 6760002) • 13. AlphaScreen protein A acceptor beads, 5 mg (PerkinElmer, 6760137M) • 14. Acetylated-lysine antibody #9441 (CST 9441S) • 15. PHERA star microplate reader (BMG labtech)
• a. 1× assay buffer: 100 mM Tris-HCl, pH 7.8; 15 mM NaCl; 1 mM EDTA; 0.01% tween-20; 1 mM DTT; 0.01% m/v ovalbumin. • b. KAT enzyme solution: 1.25 nM (final concentration), prepared in 1× assay buffer. • c. […]
The prepared enzyme solution was added to a 384-well plate at 3 µL/well, and 3 µL of 1× assay buffer was added to each well in columns 23 and 24 (Min). […] Plate reading was performed on the microplate reader, and AlphaScreen counts were recorded. Plotting was performed using the Graphpad software, and the IC50 values of the compounds were calculated. […]

Data set [3] can be described thus: Long-term/accelerated stability of crystal forms. The data set is classed as physicochemical. The procedure: Free-state samples were sealed in aluminum foil bags and left to stand in 25 °C/60% RH and 40 °C/75% RH conditions to test their stability.
Data set [4] in a line: Hygroscopicity study of crystal forms (DVS). The data set is classed as physicochemical. The settings on record: for 0.0%RH-80.0%RH: DVS mass change, 25 °C; for Crystal form: crystal form after DVS test. The protocol:
DVS refers to dynamic vapor sorption: The analysis was performed using SMS DVS Advantage; at 25 °C, the humidity was changed as follows: 50%-95%-0%-95%-50%, in steps of 10% (5% for the last step) (specific humidity ranges are shown in corresponding patterns, and those listed here were used in most cases); the criterion was dm/dt being not greater than 0.002%.
Surface Measurement Systems intrinsic DVS was adopted. At 25 °C, the crystal forms were tested in a humidity range of 0%-95%, with increments of 10%. The criterion was that each gradient mass change dM/dT is less than 0.002%, TMAX 360 min, two cycles.

The nature of data set [5]: Stability influencing factor study of crystal forms. The data set is classed as physicochemical. The protocol:
Free-state samples were spread out, left to stand in open flasks, and subjected to 30-day stability tests in light exposure (4500 Lux), high temperature (40 °C and 60 °C), and high humidity (RH 75% and RH 92.5%) conditions.

Take `COc1cccc(OC)c1S(=O)(=O)Nc1noc2cc(Cn3cccn3)c3c(c12)OCCC3` [Compound of formula 1, N-(5-((1H-pyrazol-1-yl)methyl)-3,4-dihydro-2H-chromeno[8,7-d]isoxazol-9-yl)-2,6-dimethoxybenzenesulfonamide]: in data set [1], the “Maximum inhibition rate/Imax%” value amounted to 96%. Also, the pIC50 in data set [1] (Homo sapiens, ZR-75-1, 336 h) was 9.40; in data set [2], 9.52.
With `COc1cccc(OC)c1S(=O)(=O)Nc1noc2cc(Cn3cccn3)c3c(c12)OCCC3` [Crystal form A, N-(5-((1H-pyrazol-1-yl)methyl)-3,4-dihydro-2H-chromeno[8,7-d]isoxazol-9-yl)-2,6-dimethoxybenzenesulfonamide], the Crystal form entry in data set [3] (25 °C/60%RH), in data set [3] (40 °C/75%RH) and in data set [4] was “No change” each time. In addition, the Purity% in data set [3] (25 °C/60%RH, 1 month) is on record as 99.1%; in data set [3] (25 °C/60%RH, 2 months), 99.1%; in data set [3] (25 °C/60%RH, 3 months), 99.1%; in data set [3] (25 °C/60%RH, 9 months) it was 99.1%; in data set [3] (25 °C/60%RH, 14 days) it was 99.1%; in data set [3] (25 °C/60%RH, Initial) it was 99.1%. In addition, the Purity% in data set [3] (40 °C/75%RH, 1 month) amounted to 99.1%; in data set [3] (40 °C/75%RH, 2 months), 99.1%; in data set [3] (40 °C/75%RH, 3 months), 99.1%; in data set [3] (40 °C/75%RH, 9 months) it was 99.1%; in data set [3] (40 °C/75%RH, 14 days), 99.1%; in data set [3] (40 °C/75%RH, Initial), 99.1%. Moreover, the Purity% in data set [5] (40 °C, 5 days) was 99.1%; in data set [5] (40 °C, 10 days), 99.1%; in data set [5] (40 °C, 30 days), 99.1%; in data set [5] (60 °C, 7 days), 99.1%; in data set [5] (60 °C, 14 days), 99.1%; in data set [5] (60 °C, 30 days), 99.1%. The Purity% is on record as 99.1% in data set [5] (75% RH, 7 days); 99.1% in data set [5] (75% RH, 14 days); 99.1% in data set [5] (75% RH, 30 days); 99.1% in data set [5] (92.5% RH, 7 days); 99.1% in data set [5] (92.5% RH, 14 days); 99.1% in data set [5] (92.5% RH, 30 days). The Purity% stood at 99.1% in data set [5] (Initial, 0 days); 99.0% in data set [5] (Light exposure (4500 Lux), 7 days); 98.9% in data set [5] (Light exposure (4500 Lux), 14 days); 98.9% in data set [5] (Light exposure (4500 Lux), 30 days). This compound showed a 0.0%RH-80.0%RH in data set [4] of 0.10%.
Regarding `COc1cccc(OC)c1S(=O)(=O)Nc1noc2cc(Cn3cccn3)c3c(c12)OCCC3` [Crystal form H, N-(5-((1H-pyrazol-1-yl)methyl)-3,4-dihydro-2H-chromeno[8,7-d]isoxazol-9-yl)-2,6-dimethoxybenzenesulfonamide], in data set [4], the 0.0%RH-80.0%RH is given as 19.91% and the Crystal form entry was “No change”.
